Results on seven compounds are retold here after patent US8378117B2 (priority 2005, dated 2013).

SMILES strings stand for the structures. Where two headings read alike, the source gives them in different places.

One test has as its system Male CD-1 mice. Put plainly: Oil of mustard induced colitis model. The format is in vivo. The text has this:
In the distal colon, the oil of mustard colitis model is characterized by a discontinuous pattern of mucosal epithelial damage, submucosal edema, infiltration of inflammatory cells (including macrophages, neutrophils and lymphocytes) into the mucosa and submucosa, increased wet weight of the colon, shrinkage of the colon length, diarrhea and apparent inflammation (see, Kimball E. S., Palmer J. M., D'Andrea M. R., Homby P. J. and Wade P. R., Acute colitis induction by oil of mustard results in later development of an IBS-like accelerated upper GI transit in mice, Am. J Physiol. Gastrointest. Liver Physiol., 2005, 288: G 1266-1273).
Male CD-1 mice (Charles River Laboratories, Kingston, N.C.) (9-11 weeks old) and fresh oil of mustard (OM) (allyl isothiocyanate, 98% purity, Sigma-Aldrich St. Louis, Mo.) were used.
The mice (9 per treatment group) were briefly anesthetized with ketamine/xylasine (Sigma, St. Louis, Mo.) and a solution of 0.5% OM in 30% ethanol (50 μL) was administered intracolonically (to a depth of 4 cm) via syringe (equipped with a ball-tipped 22 G needle).
A test compound was orally administered one day prior to colitis induction for assessing a prophylactic regimen or one day post-induction for assessing a therapeutic regimen. A test compound was orally administered daily thereafter. Two days after OM administration, the last test compound dose was administered.
Three days after OM administration, the animals were sacrificed. The colons were resected, examined for signs of inflammation, weighed after removing fecal contents and the length from the aboral end of the cecum to the anus was measured. The fecal contents were examined for signs of diarrhea. The distal colon between the 1st and the 4th centimeter was removed and placed in 10% neutral buffered formalin for histological analysis.
The macroscopic observations of colon inflammation (a measure of colon damage), colon weight and length and stool consistency and appearance were assigned a score and used to evaluate colitis severity.
The four observation scores for each colon were combined, whereby a combined score of 0 represents a normal colon and a combined score of 15 represents a maximally affected colon. Statistical analyses were performed in Graphpad Prism 4.0 using ANOVA.
Histological analyses of tissues consisted of staining paraffin-embedded tissue sections with hematoxylin-eosin dye. The tissues were examined using light microscopy by an investigator who was blinded to the sample groups.
The microscopic observations of epithelial damage, cellular infiltration and damage or alteration of smooth muscle architecture (a measure of muscle damage) were assigned a score and used to evaluate colitis severity.
The scores for each colon were combined, whereby a combined score of 0 represents a normal colon and a combined score of 9 represents a maximally affected colon. Statistical analyses were performed in Graphpad Prism 4.0 using ANOVA.
The Macroscopic Score and Microscopic Score results for each treatment group in the prophylactic and therapeutic regimens were each combined into a mean score and expressed as % inhibition of colitis (% Inh). Test (#) represents the number of experiments at each dose level.

For test [1], the target named is T1, CB2 receptor (Homo sapiens, UniProt P34972).
T1 construct: expressed in transfected cells
Put plainly: Binding assay for CB2 agonists or inverse agonists (SK-N-MC membranes, [3H]-CP-55,940). Particulars: for IC50: Cannabinoid CB2 Receptor Binding IC50, calculated by linear regression from percent inhibition at various test concentrations; for inhibition at 0.2 µM: read-out: CB2 receptor binding percent inhibition, test concentration 0.2 μM (footnote 2). The essentials: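 IC50 came from percent-inhibition data over several compound concentrations, fitted by linear regression. Binding used semi-purified membranes of human CB2-transfected SK-N-MC cells, 90 min at 30 °C, pH 7.5 Tris-HCl with MgCl2, EDTA and BSA, then filtration and scintillation counting.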

Test [2] deals with T2, CB1 receptor (Homo sapiens, UniProt P21554).
T2 construct: expressed in transfected cells
Briefly: Binding assay for CB1 agonists or inverse agonists (SK-N-MC membranes, [3H]-CP-55,940). Particulars: for IC50: Cannabinoid CB1 Receptor Binding IC50, calculated by linear regression from percent inhibition at various test concentrations; for inhibition at 1 µM: read-out: CB1 receptor binding percent inhibition, test concentration 1 μM (footnote 1). The essentials: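 Radioligand displacement: [3H]-CP-55,940 at […], 90 min at 30° C, pH 7.5 Tris buffer with 0.5 mg/mL fatty-acid-free BSA, using semi-purified membranes of human-CB1-transfected SK-N-MC cells. Bound counts collected on GF/C filters, 10 uM WIN 55,212 for non-specific; IC50 from percent inhibition over several concentrations.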

The target of test [3] is T1, CB2 receptor. Briefly: Functional cell-based assay, CB2 receptor mediated change in CRE β-gal expression (SK-N-MC cells). Particulars: CB2 Receptor Functional Agonist EC50, forskolin induced β-galactosidase activity, SK-N-MC cells. The text has this:
The CB1 and CB2 receptors are G-protein coupled receptors (GPCR), which influence cell function via the Gi-protein. These receptors modulate the activity of intracellular adenylate cyclase, which in turn produces the intracellular signal messenger cyclic-AMP (cAMP).
At baseline, or during non-ligand bound conditions, these receptors are constitutively active and tonically suppress adenylate cyclase activity. The binding of an agonist causes further receptor activation and produces additional suppression of adenylate cyclase activity. The binding of an inverse agonist inhibits the constitutive activity of the receptors and results in an increase in adenylate cyclase activity.
By monitoring intracellular adenylate cyclase activity, the ability of compounds to act as agonists or inverse agonists can be determined.
Test compounds were evaluated in SK-N-MC cells which, using standard transfection procedures, were stably transfected with human cDNA for pcDNA3-CRE β-gal and pcDNA3 CB1 receptor (human) or pcDNA3 CB2 receptor (human). By expressing CRE β-gal, the cells produced β-galactosidase in response to CRE promoter activation by cAMP. Cells expressing CRE β-gal and either the human CB1 or CB2 receptor will produce less β-galactosidase when treated with a CB1/CB2 agonist and will produce more β-galactosidase when treated with a CB1/CB2 inverse agonist.
The cells were grown in 96-well plates under standard cell culture conditions at 37° C. in a 5% CO2 atmosphere and culture media (wherein the media was supplemented with 2 mM L-glutamine, […] sodium pyruvate, 10% FBS (fetal bovine serum) and antibiotics).
For cells expressing CRE β-gal and the CB2 receptor, CB2 agonists reduced β-galactosidase activity in a dose-dependent manner and CB2 inverse agonists increase β-galactosidase activity in a dose-dependent manner.
The change in forskolin induced β-galactosidase activity was determined by setting a vehicle treated cell's activity value at 100% and expressing the β-galactosidase activity measured in a corresponding compound treated cell as a percent of the vehicle treated cell activity.
The EC50 value for functional activity for compounds tested was calculated by linear regression and was obtained from studies in which varying compound concentrations were used.

The target of test [4] is T2, CB1 receptor. Put plainly: cell-based. Particulars: CB1 Receptor Functional Agonist EC50, SK-N-MC cells, forskolin induced β-galactosidase activity. The procedure, abridged: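 Read-out is forskolin-driven CRE-β-gal reporter activity in stably transfected human-CB1 SK-N-MC cells, normalised to vehicle (100%); agonism lowers, inverse agonism raises signal. Values are EC50 (linear regression, multiple concentrations) or % change at one concentration.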

Where [5] appears, read: Therapeutic Regimen, 5 mg/kg oral, 5 mg/kg.
[6] abbreviates: test concentration 0.2 μM (footnote 2), 0.2 µM.
Where [7] appears, read: Prophylactic Regimen, 2.5 mg/kg oral.
Where [8] appears, read: Prophylactic Regimen, 5 mg/kg oral.
Where [9] appears, read: Therapeutic Regimen, 5 mg/kg oral.
[10] abbreviates: read-out: CB1 receptor binding percent inhibition, test concentration 0.2 μM (footnote 2).

T2 sequence (P21554 whole entry): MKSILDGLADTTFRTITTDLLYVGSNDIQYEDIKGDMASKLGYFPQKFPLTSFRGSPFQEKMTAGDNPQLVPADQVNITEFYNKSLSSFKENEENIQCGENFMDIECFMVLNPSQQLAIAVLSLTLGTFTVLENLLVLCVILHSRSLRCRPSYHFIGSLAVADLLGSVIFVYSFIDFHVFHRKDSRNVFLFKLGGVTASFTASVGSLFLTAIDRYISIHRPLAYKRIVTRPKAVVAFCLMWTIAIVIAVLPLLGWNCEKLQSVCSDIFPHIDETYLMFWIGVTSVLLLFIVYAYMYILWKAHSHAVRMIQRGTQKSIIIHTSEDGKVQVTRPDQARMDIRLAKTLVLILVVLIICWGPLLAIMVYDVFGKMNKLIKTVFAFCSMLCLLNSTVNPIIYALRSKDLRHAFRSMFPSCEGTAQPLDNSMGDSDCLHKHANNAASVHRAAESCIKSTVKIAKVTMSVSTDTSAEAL
T1 sequence (P34972 whole entry): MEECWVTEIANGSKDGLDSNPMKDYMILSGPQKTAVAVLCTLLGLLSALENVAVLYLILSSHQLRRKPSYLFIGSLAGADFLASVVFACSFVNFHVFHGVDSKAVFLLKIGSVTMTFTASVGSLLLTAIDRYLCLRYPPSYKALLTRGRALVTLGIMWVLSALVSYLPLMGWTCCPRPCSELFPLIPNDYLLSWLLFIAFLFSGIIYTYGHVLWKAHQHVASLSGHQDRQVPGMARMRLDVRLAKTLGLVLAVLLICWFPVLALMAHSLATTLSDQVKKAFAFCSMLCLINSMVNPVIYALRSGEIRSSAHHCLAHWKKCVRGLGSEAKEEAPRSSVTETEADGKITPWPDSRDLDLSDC

For the compound `O=C(N[C@@H](CO)c1ccccc1)c1n[nH]c2c1CCCCC2Cc1cccc(Cl)c1` (stereo in doubt) [Cpd 228, (8S*)-8-(3-chloro-benzyl)-1,4,5,6,7,8-hexahydro-cycloheptapyrazole-3-carboxylic acid [(1R)-2-hydroxy-1-phenyl-ethyl]-amide], the “% Inh (Macro), % inhibition of colitis, macroscopic score” value (shortened to “% Inh (Macro), % inhibition of colitis”) with Male CD-1 mice (setting [5]) was 51.7 ± 13.2%. The “CB2 receptor binding percent inhibition” value at CB2 receptor [1] (setting [6]) is “^(2)45%”. The “CB1 receptor binding percent inhibition” value on CB1 receptor [2] (setting [6]) is “^(2)0%”.

Regarding `O=C(N[C@@H](CO)c1ccccc1)c1n[nH]c2c1CCCCC2Cc1cccc(Cl)c1` (stereo in doubt) [Cpd 229, (8R*)-8-(3-chloro-benzyl)-1,4,5,6,7,8-hexahydro-cycloheptapyrazole-3-carboxylic acid [(1R)-2-hydroxy-1-phenyl-ethyl]-amide], the values for the half-maximal effective concentration (EC50) on CB2 receptor [3] and at CB1 receptor [4] were 2 nM and 60 nM, respectively. The “% Inh (Macro), % inhibition of colitis” value in the test on Male CD-1 mice (setting [5]) is 56.9 ± 11.6%. The IC50 (in general, the concentration at which inhibition is half-maximal) at CB2 receptor [1] is 20 nM; at CB1 receptor [2], 60 nM. Moreover, at CB2 receptor [1] (setting [6]), the “CB2 receptor binding percent inhibition” value is recorded as 95%. Moreover, the “CB1 receptor binding percent inhibition” value at CB1 receptor [2] (setting [6]) is listed as 73%.

As for `C[C@H](NS(=O)(=O)/C=C/c1n[nH]c2c1CCCCC2Cc1cccc(F)c1)c1ccccc1` (stereo partly drawn) [Cpd 96, (2E)-2-[8-(3-fluoro-benzyl)-1,4,5,6,7,8-hexahydro-cycloheptapyrazol-3-yl]-ethenesulfonic acid [(1S)-1-phenyl-ethyl]-amide], the “% Inh (Macro), % inhibition of colitis” value amounted to 8.0 ± 16.7% in the test on Male CD-1 mice (setting [7]), 10.8 ± 13.4% with Male CD-1 mice (setting [8]) and 7.6 ± 11.5% with Male CD-1 mice (setting [9]). At CB2 receptor [1] (test concentration 0.015 μM (footnote 7), read-out: CB2 receptor binding percent inhibition), the inhibition at 0.015 µM amounted to 50%. Also, the inhibition at 1 µM at CB2 receptor [1] (test concentration 1 μM (footnote 1), read-out: CB2 receptor binding percent inhibition) stood at 94%; on CB1 receptor [2] it was 0%. For the same compound, on CB2 receptor [1] (test concentration not stated), the “CB2 receptor binding percent inhibition” value came out at 72%.

For `C[C@H](NS(=O)(=O)/C=C/c1n[nH]c2c1CCCCC2Cc1ccc(F)cc1)c1ccccc1` (stereo partly drawn) [Cpd 108, (2E)-2-[8-(4-fluoro-benzyl)-1,4,5,6,7,8-hexahydro-cycloheptapyrazol-3-yl]-ethenesulfonic acid [(1S)-1-phenyl-ethyl]-amide], the “% Inh (Macro), % inhibition of colitis” value was determined as 51.2 ± 19.1% with Male CD-1 mice (setting [7]) and 13.4 ± 13.3% in the test with Male CD-1 mice (setting [8]). Moreover, the “CB2 receptor binding percent inhibition” value on CB2 receptor [1] (test concentration not stated) was found to be 100%. Moreover, on CB1 receptor [2] (read-out: CB1 receptor binding percent inhibition, test concentration 0.5 μM (footnote 10)), the inhibition at 0.5 µM turned out to be 33%. Further, the inhibition at 1 µM at CB1 receptor [2] was 55%. Also, the “CB1 receptor binding percent inhibition” value on CB1 receptor [2] (test concentration not stated) amounted to 44%.

On to `C[C@H](NC(=O)c1nn(-c2cc(Cl)ccc2Cl)c2c1CCCC/C2=C\c1ccc(Cl)cc1)c1ccccc1` [Cpd 198, (8E)-8-(4-chloro-benzylidene)-1-(2,5-dichloro-phenyl)-1,4,5,6,7,8-hexahydro-cycloheptapyrazole-3-carboxylic acid [(1S)-1-phenyl-ethyl]-amide], for which the “% Inh (Macro), % inhibition of colitis” value with Male CD-1 mice (setting [9]) is given as 41.0 ± 17%. Moreover, the EC50 (as a rule, the concentration needed to bring the measured effect to its halfway point) at CB1 receptor [4] amounted to 20 nM. The inhibition at 0.2 µM at CB2 receptor [1] turned out to be 68%; at CB1 receptor [2] (read-out: CB1 receptor binding percent inhibition) it was 87%. Moreover, the IC50 on CB1 receptor [2] was 20 nM.

Turning to `COC(=O)[C@@H](Cc1ccc(F)cc1)NC(=O)c1n[nH]c2c1CCCC/C2=C\c1cccc(Cl)c1` [Cpd 245, (8E)-(2R)-2-{[8-(3-chloro-benzylidene)-1,4,5,6,7,8-hexahydro-cycloheptapyrazole-3-carbonyl]-amino}-3-(4-fluoro-phenyl)-propionic acid methyl ester], the concentration giving a half-maximal response (EC50) on CB2 receptor [3] stood at 1 nM; on CB1 receptor [4], 80 nM. Besides, the figures for the IC50 on CB2 receptor [1] and at CB1 receptor [2] were 2 nM and 6 nM, respectively. The inhibition at 0.2 µM on CB2 receptor [1] stood at 93%; on CB1 receptor [2] (setting [10]), 68%.

As to `COC(=O)[C@@H](Cc1ccc(F)cc1)NC(=O)c1n[nH]c2c1CCCC/C2=C\c1ccc(Cl)cc1` [Cpd 247, (8E)-(2R)-2-{[8-(4-chloro-benzylidene)-1,4,5,6,7,8-hexahydro-cycloheptapyrazole-3-carbonyl]-amino}-3-(4-fluoro-phenyl)-propionic acid methyl ester], the half-maximal effective concentration (EC50) at CB2 receptor [3] came out at 4 nM; at CB1 receptor [4], 8 nM. Moreover, the figures for the IC50 on CB2 receptor [1] and at CB1 receptor [2] were 1 nM and 2 nM, respectively. The figures for the inhibition at 0.2 µM at CB2 receptor [1] and at CB1 receptor [2] (setting [10]) were 96% and 91%, respectively.
